Experiments:
[1] = molecular target: T1, HIV reverse transcriptase (RNase H activity) (Human immunodeficiency virus type 1 group M subtype B, UniProt P04585); test: Inhibition of RNase H / HIV reverse transcriptase (fluorescent probe-target hybrid assay); type: biochemical; conditions: Table I
T1 construct: HIV reverse transcriptase has an RNase H domain at the C-terminus of its p66 subunit
Source text: RNase H is an enzyme responsible for the removal of RNA primers from leading and lagging strands during DNA synthesis. It is an important enzyme for the replication of bacterial, viral and human genomes. HIV reverse transcriptase has an RNase H domain at the C-terminus of its p66 subunit. […] The ability of the compounds of the present invention to inhibit RNase H, and more particularly HIV reverse transcriptase, may be measured or determined by any means known in the art.
Preferably, the RNase H/HIV reverse transcriptase modulatory activity of the compounds of the present invention may be determined by the methods described in a copending U.S. provisional patent Application No. 60/436,125, filed Dec. 19, 2002 and PCT Publication No. WO 2004/059012, filed Dec. 22, 2003, published Jul. 15, 2004, entitled ASSAY FOR RNase ACTIVITY of Olson et al., incorporated herein by reference in their entirety. Specifically, the modulatory activity of a hydantoin derivative of the present invention may be determined by hybridizing a target nucleic acid to a fluorescently labeled oligonucleotide probe complementary to the target nucleic acid and containing a fluorophor at one terminus and a quenching group at the other terminus to obtain a probe-target hybrid, wherein (i) the unhybridized probe adopts a conformation that places the fluorophor and quencher in such proximity that the quencher quenches the fluorescent signal of the fluorophor, and (ii) the formation of the probe-target hybrid causes sufficient separation of the fluorophor and quencher to reduce quenching of the fluorescent signal of the fluorophor. Next, a first and second sample containing the probe-target hybrid are prepared. The probe-target hybrid of the first sample is then contacted with an RNase H enzyme (such as HIV reverse transcriptase) in an amount sufficient to selectively cleave the target nucleic acid and thereby release the intact probe. The probe-target hybrid of the second sample is also contacted with the RNase H enzyme in an amount sufficient to selectively cleave the target nucleic acid and thereby release the intact probe in the presence of a hydantoin derivative of the present invention. The release of the probe in each sample may then be detected by measuring the […] in the fluorescent signal of the fluorophor as compared to the signal of the probe-target hybrid. A comparison of the rate of the decrease in the fluorescent signal of the fluorophor in the two samples is made to determine whether there is a difference in the rate of the decrease in the two samples. […] This method is also useful to identify hydantoin derivatives of the present invention, wherein candidate hydantoin derivatives are screened for their ability to modulate RNase/HIV reverse transcriptase activity.

[2] = molecular target: T2, HIV reverse transcriptase (RDDP polymerase activity) (Human immunodeficiency virus type 1 group M subtype B, UniProt P04585); test: RNA dependent DNA polymerase (RDDP) activity of HIV RT, polyrA-oligodT12-18 / 33P TTP incorporation; type: biochemical
T2 construct: HIV Reverse transcriptase (RT) 66/p51; purchased Worthington

SMILES	IC50 [1]	IC50 [2]
Cc1ccc(C2(C3CC3)NC(=O)NC2=O)cc1C (stereo not shown) [5-cyclopropyl-5-(3,4-dimethyl-phenyl)-2,4-imidazolidinedione]	41 µM	> 122 µM
O=C1NC(c2ccccc2)(c2ccccc2)C(=O)N1CCCBr [3-(3-bromopropyl)-5,5-diphenyl-2,4-imidazolidinedione]	56 µM	> 146 µM
CC1(C)SC2C(NC(=O)C(NC(=O)CN3C(=O)NC(c4ccccc4)(c4ccccc4)C3=O)c3ccccc3)C(=O)N2C1C(=O)O (stereo not shown) [6-[{[{(2,5-dioso-4,4-diphenylimidazolidin-1-yl)acetyl]amino}(phenyl)acetyl]amino}-3,3-dimethyl-7-oxo-4-thia-1-azabicyclo[3.2.0]heptane-2-carboxylic acid]	4 µM	> 62 µM
C=CN1C(=O)NC(C)(C)C1=O [5,5-dimethyl-3-vinyl-imidazolidine-2,4-dione]	50 µM	> 107 µM
CC(C)(C)OC(=O)N1C(=O)N(C(=O)OC(C)(C)C)C2(CCN(Cc3ccccc3)CC2)C1=O [di(tert-butyl) 8-benzyl-2,4-dioxo-1,3,8-triazaspiro[4.5}decane-1,3-dicarboxylate]	87 µM	> 103 µM
CCC1(c2ccc(C)cc2)N=C(O)N=C1O (stereo not shown) [4-ethyl-4-(4-methylphenyl)-4H-imidazole-2,5-diol]	4 µM	> 184 µM
O=C1NC(=O)C(=Cc2cc(Br)cc(Br)c2O)N1 [5-(3,5-dibromo-2-hydroxy-benzylidene)-imidazolidine-2,4-dione]	13 µM	> 111 µM
O=C1NC(=O)C(=Cc2cc(Cl)cc(Cl)c2O)N1 [5-(3,5-Dichloro-2-hydroxy-benzylidene)-imidazolidine-2,4-dione]	57 µM	> 102 µM
CC1(c2ccccc2)NC(=O)N(C(=O)/C=C/c2ccc(F)c(C(F)(F)F)c2)C1=O (stereo not shown) [3-{(2E)-3-[4-fluoro-3-(trifluoromethyl)phenyl]prop-2-enoyl}-5-methyl-5-phenylimidazolidine-2,4-dione]	99 µM	> 115 µM
CC1(c2ccccc2)NC(=O)N(C(=O)/C=C/c2ccc(Cl)c(Cl)c2)C1=O (stereo not shown) [3-[(2E)-3-(3,4-dichlorophenyl)prop-2-enoyl]-5-methyl-5-phenylimidazolidine-2,4-dione]	52 µM	> 107 µM
C[C@]1(c2ccccc2)NC(=O)N(C(=O)/C=C/c2ccc(C(F)(F)F)cc2)C1=O [(5R)-5-methyl-5-phenyl-3-{(2E)-3-[4(trifluoromethyl)phenyl]prop-2-enoyl]imidizolidine-2,4-dione]	58 µM	> 105 µM
Cc1cn([C@H]2C[C@H](N=[N+]=[N-])[C@@H](CO)O2)c(=O)[nH]c1=O [AZT, reference compound]		< 0.2 µM
Cc1cc(C(=O)N2C(=O)NC(C)(c3ccccc3)C2=O)ccc1Cl (stereo not shown) [3-(4-chloro-3-methylbenzoyl)-5-methyl-5-phenylimidazolidine-2,4-dione]	100 µM	
CCC1(c2ccc(Br)cc2)NC(=O)NC1=O (stereo not shown) [5-(4-bromo-phenyl)-5-ethyl-imidazolidine-2,4-dione]	64 µM	
C[C@@]1(c2ccccc2)NC(=O)N(C(=O)/C=C/c2ccc(C(F)(F)F)cc2)C1=O [(5S)-5-methyl-5-phenyl-3-{(2E)-3-[4-(trifluoromethyl)phenyl]prop-2-enoyl}imidazolidine-2,4-dione]	98 µM	> 100 µM
O=C(c1ccccc1)N1C(=O)N2CCc3ccccc3C2(c2ccccc2)C1=O (stereo not shown) [2-benzoyl-10b-phenyl-6,10b-dihydro-5H-imidazo[5,1-a]isoquinoline-1,3-dione]	63 µM	
CC[C@@]1(c2ccc(C)cc2)NC(=O)NC1=O [(5S)-5-ethyl-5-(4-methylphenyl)imidazolidine-2,4-dione]	2 µM	> 180 µM
CC1(c2ccccc2)NC(=O)N(C(=O)/C=C/c2ccccc2)C1=O (stereo not shown) [5-methyl-5-phenyl-3-[(2E)-3-phenylprop-2-enoyl]imidazolidine-2,4-dione]	46 µM	> 260 µM
Cc1ccc(C(=O)C(C)N2C(=O)NC(C)(c3ccccc3)C2=O)cc1Cl (stereo not shown) [3-[2-(3-chloro-4-methylphenyl)-1-methyl-2-oxoethyl]-5-methyl-5-phenyl-2,4-imidazolidinedione]	51 µM	> 103 µM
